Test systems include K-562 leukemia; MALME-3M melanoma; NCI-H23 lung; NCI-H522 lung; NCI/ADR-RES ovarian; PC-3 prostate; SK-MEL-2 melanoma; SK-MEL-28 melanoma; SNB-75 CNS; TK-10 renal.
Common to all, as to test: NCI anticancer screen, dose series, 48 h

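Growth conditions: 96-well plates. Treatment: test compound, 48 hours, 5 concentrations. Analysis: linear interpolation between bracketing concentrations; unreached endpoints set to highest concentration. The concentration for full growth arrest is given as TGI.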

As to `COC(=O)C1C/C(=C/N(C)C)C(=S)N1` (stereo not given), the TGI with K-562 leukemia, with MALME-3M melanoma, with NCI-H23 lung, in the assay with NCI-H522 lung, in the assay with NCI/ADR-RES ovarian and in the assay with PC-3 prostate was > 100 µM each time. For the same molecule, the TGI in the assay with SK-MEL-2 melanoma, in the assay with SK-MEL-28 melanoma, with SNB-75 CNS and in the assay with TK-10 renal was > 100 µM each time.

Consider `CCSc1sc(=Nc2ccc(N=c3sc(C)c(SC)s3)cc2)sc1-c1ccc(C)cc1`, for which the TGI in the assay on K-562 leukemia, with MALME-3M melanoma, in the assay with NCI-H23 lung, in the assay with NCI-H522 lung, in the assay on NCI/ADR-RES ovarian and in the assay on PC-3 prostate was > 100 µM in each case. In addition, the TGI with SK-MEL-2 melanoma, with SK-MEL-28 melanoma, in the assay on SNB-75 CNS and in the assay with TK-10 renal was > 100 µM throughout.

In the case of `CN(C)CCNC(=O)c1cccc2c(NCCN(C)C)c3ccccc3nc12`, the TGI in the assay on K-562 leukemia came out at 6.86 µM; in the assay on MALME-3M melanoma, 15.4 µM; with NCI-H23 lung, 7.03 µM; in the assay with NCI-H522 lung, 2.97 µM; with NCI/ADR-RES ovarian, 25.7 µM; in the assay on PC-3 prostate, 7.34 µM. For the same molecule, the TGI with SK-MEL-2 melanoma came to 17.6 µM; in the assay on SK-MEL-28 melanoma, 28.6 µM; in the assay on SNB-75 CNS, 11.1 µM; in the assay on TK-10 renal, 21.9 µM.

For `Nc1nc(Cl)c(N)c(NCC2(CO)CC(OCc3ccccc3)C2)n1` (stereo not given), the TGI with K-562 leukemia, in the assay with MALME-3M melanoma, in the assay with NCI-H23 lung, in the assay with NCI-H522 lung, in the assay on NCI/ADR-RES ovarian and in the assay on PC-3 prostate was > 100 µM each time. Besides, the TGI in the assay on SK-MEL-2 melanoma, in the assay with SK-MEL-28 melanoma, with SNB-75 CNS and in the assay on TK-10 renal was > 100 µM in each case.

As to `[N-]=[N+]=C1N=CN=C1c1ncn[nH]1`, the TGI in the assay with K-562 leukemia is 60 µM; with MALME-3M melanoma it was > 100 µM; in the assay on NCI-H23 lung it was > 100 µM; with NCI-H522 lung, > 100 µM; in the assay with NCI/ADR-RES ovarian it was > 100 µM; with PC-3 prostate, > 100 µM. Moreover, the TGI in the assay with SK-MEL-2 melanoma, in the assay on SK-MEL-28 melanoma, with SNB-75 CNS and with TK-10 renal was > 100 µM each time.

With `O=C1CC2(c3ccccc3)ON=C(c3ccccc3)N2c2ccccc2N1` (stereo not given), the TGI with K-562 leukemia, with MALME-3M melanoma, in the assay with NCI-H23 lung, with NCI-H522 lung, in the assay with NCI/ADR-RES ovarian and with PC-3 prostate was > 100 µM throughout. Moreover, the TGI in the assay on SK-MEL-2 melanoma, in the assay on SK-MEL-28 melanoma, in the assay with SNB-75 CNS and in the assay on TK-10 renal was > 100 µM each time.

As to `O=C1NC(SSC2=NNC3(C(=O)N2)c2ccccc2-c2ccccc23)=NNC12c1ccccc1-c1ccccc12`, the TGI with K-562 leukemia, with MALME-3M melanoma, in the assay with NCI-H23 lung, with NCI-H522 lung, in the assay with NCI/ADR-RES ovarian and in the assay with PC-3 prostate was > 10 µM throughout. Moreover, the TGI in the assay with SK-MEL-2 melanoma, with SK-MEL-28 melanoma, with SNB-75 CNS and in the assay with TK-10 renal was > 10 µM in each case.

`COC(=O)CCC(=O)NC1=C(Nc2ccc(OC)cc2)C(=O)c2ccccc2C1=O`: the TGI in the assay with K-562 leukemia is > 86.8 µM; in the assay on MALME-3M melanoma it was 4.69 µM; in the assay on NCI-H23 lung it was 22.7 µM; with NCI-H522 lung it was 24.3 µM; with NCI/ADR-RES ovarian, 60.3 µM; in the assay with PC-3 prostate, > 92.2 µM. Moreover, the TGI worked out at 20.1 µM with SK-MEL-2 melanoma, 31.4 µM in the assay on SK-MEL-28 melanoma, 21.2 µM in the assay on SNB-75 CNS and 85.3 µM in the assay with TK-10 renal.

As to `Nn1c(COc2cccc(OCc3n[nH]c(=S)n3N)c2)n[nH]c1=S`, the TGI with K-562 leukemia, in the assay with MALME-3M melanoma, in the assay on NCI-H23 lung, in the assay on NCI-H522 lung, in the assay with NCI/ADR-RES ovarian and in the assay with PC-3 prostate was > 100 µM throughout. The TGI in the assay with SK-MEL-2 melanoma, in the assay with SK-MEL-28 melanoma, with SNB-75 CNS and in the assay with TK-10 renal was > 100 µM throughout.

For `CC[C@]12C=CCN3CC[C@@]4(c5cc(Br)c(OC)cc5N(C)[C@H]4[C@@](O)(C(=O)NN)[C@@H]1O)[C@@H]32`, the TGI in the assay on K-562 leukemia, with MALME-3M melanoma, with NCI-H23 lung, with NCI-H522 lung, in the assay on NCI/ADR-RES ovarian and with PC-3 prostate was > 100 µM each time. Moreover, the TGI in the assay with SK-MEL-2 melanoma is 70.6 µM; with SK-MEL-28 melanoma it was > 100 µM; in the assay with SNB-75 CNS, 43.6 µM; in the assay with TK-10 renal, > 100 µM.

Take `Cc1c(Cl)nc(Nc2nc3ccccc3[nH]2)nc1Cl`: the TGI with K-562 leukemia, in the assay on MALME-3M melanoma, in the assay on NCI-H23 lung, in the assay on NCI-H522 lung, in the assay on NCI/ADR-RES ovarian and in the assay on PC-3 prostate was > 100 µM in each case. Moreover, the TGI in the assay with SK-MEL-2 melanoma, in the assay with SK-MEL-28 melanoma, in the assay on SNB-75 CNS and with TK-10 renal was > 100 µM throughout.

For `O=S(=O)(c1ccccc1)n1c2ccc(Br)cc2c2nc3ccccc3nc21`, the TGI in the assay on K-562 leukemia, with MALME-3M melanoma, in the assay with NCI-H23 lung, with NCI-H522 lung, in the assay with NCI/ADR-RES ovarian and with PC-3 prostate was > 100 µM throughout. Besides, the TGI in the assay on SK-MEL-2 melanoma, in the assay with SK-MEL-28 melanoma, in the assay on SNB-75 CNS and in the assay with TK-10 renal was > 100 µM throughout.

On to `S=C(NC1=NCC(CN2CCN(c3ccccc3)CC2)O1)Nc1ccccc1` (stereo not given), for which the TGI in the assay on K-562 leukemia, with MALME-3M melanoma, in the assay on NCI-H23 lung, in the assay with NCI-H522 lung, in the assay with NCI/ADR-RES ovarian and with PC-3 prostate was > 100 µM each time. Also, the TGI with SK-MEL-2 melanoma, in the assay with SK-MEL-28 melanoma, in the assay with SNB-75 CNS and in the assay on TK-10 renal was > 100 µM each time.

`O=CN1CCN(C(=O)c2ccc(Cl)cc2Cl)C1=S`: the TGI with K-562 leukemia was > 100 µM; in the assay on MALME-3M melanoma, > 100 µM; in the assay on NCI-H23 lung, > 100 µM; in the assay with NCI-H522 lung, 46.8 µM; in the assay with NCI/ADR-RES ovarian, > 100 µM; with PC-3 prostate it was > 100 µM. In addition, the TGI was > 100 µM in the assay on SK-MEL-2 melanoma, > 100 µM with SK-MEL-28 melanoma, 85.5 µM in the assay on SNB-75 CNS and > 100 µM in the assay with TK-10 renal.
